Assay [1] concerns the target T1, αVβ6 (HT-29 human colon carcinoma cells) (Homo sapiens, UniProt P06756+P18564).
T1 construct: endogenous in cells; host or cells: HT-29 human colon carcinoma cells
The assay can be described thus: HT-29 cell adhesion assay (adhesion to immobilized LAP). Particulars: selectivity ratio: IC50 αVβ6 (HT-29) over IC50 β3. In kind it is cell-based. How it is done:
To evaluate compound potency for membrane-bound αVβ6 an additional cell-based adhesion assay was established using the HT-29 human colon carcinoma cell line. High surface expression of αVβ6 on HT-29 cells was confirmed by flow cytometry. Conditions were established in which cell adhesion to immobilized human latency associated peptide (LAP) was mediated by the αVβ6, as determined by a panel of integrin-specific, neutralizing monoclonal antibodies. Briefly, cells were incubated with inhibitor in the presence of 200 uM Mn^2+, allowed to adhere to immobilized LAP, washed, and adherent cells are detected by quantifying endogenous alkaline phosphatase using para-nitrophenyl phosphate. An 8-point dose-response curve using either 10-fold or 3-fold dilutions of compound was evaluated by fitting a four-parameter logistic, nonlinear model (using SAS). The compounds evaluated were relatively ineffective at inhibition of αVβ6-mediated cell adhesion. The selective antagonism of the αVβ3 integrin is viewed as desirable in this class of compounds, as αVβ6 may also play a role in normal physiological processes of tissue repair and cellular turnover that routinely occur in the skin and pulmonary tissues.

Assay [2] addresses T2, αVβ3 integrin (293-β3 cells) (Homo sapiens, UniProt P05106+P06756).
T2 construct: expressed in transfected cells; host or cells: 293 human embryonic kidney cells (293-β3)
The assay can be described thus: 293-β3 cell adhesion assay (adhesion to immobilized vitronectin). Format: cell-based. Particulars: 200 uM Mn2+, read-out: 293-β3 (IC50 <10 μM). The source says:
While the β3 subunit of αVβ3 is only known to complex with αV or αIIb, the αV subunit complexes with multiple β subunits. The three αV integrins most homologous with αVβ3 are αVβ1, αVβ5 and αVβ6, with 43%, 56% and 47% amino acid identity in the β subunits, respectively. To evaluate the selectivity of compounds between the integrins αVβ3 and αVβ6, cell-based assays were established using the 293 human embryonic kidney cell line. 293 cells express αVβ1, but little to no detectable αVβ3 or αVβ6. cDNAs for β3 and β6 were transfected separately into 293 cells to generate 293-β3 and 293-β6 cells, respectively. High surface expression of αVβ3 and αVβ6 was confirmed by flow cytometry. Conditions were established for each cell line in which cell adhesion to immobilized human vitronectin was mediated by the appropriate integrin, as determined by a panel of integrin-specific, neutralizing monoclonal antibodies. Briefly, cells were incubated with inhibitor in the presence of 200 uM Mn^2+, allowed to adhere to immobilized vitronectin, washed, and adherent cells are detected endogenous alkaline phosphatase and para-nitrophenyl phosphate. An 8-point dose-response curve using either 10-fold or 3-fold dilutions of compound was evaluated by fitting a four-parameter logistic, nonlinear model (using SAS).

Assay [3] concerns the target T3, Human fibrinogen receptor (IIb/IIIa) (Homo sapiens, UniProt P05106+P08514).
T3 construct: Human fibrinogen receptor (IIb/IIIa) was purified from outdated platelets; from tissue; host or cells: outdated human platelets
The experiment in a line: Purified IIb/IIIa receptor assay (solid phase receptor assay, SPRA). Format: binding. Particulars: selectivity ratio: IC50 αIIbβ3 (solid phase receptor assay) over IC50 β3. The source says:
Human fibrinogen receptor (IIb/IIIa) was purified from outdated platelets. (Pytela, R., Pierschbacher, M. D., Argraves, S., Suzuki, S., and Rouslahti, E. “Arginine-Glycine-Aspartic acid adhesion receptors”, Methods in Enzymology 144(1987):475-489.) Human vitronectin was purified from fresh frozen plasma as described in Yatohgo, T., Izumi, M., Kashiwagi, H., and Hayashi, M., “Novel purification of vitronectin from human plasma by heparin affinity chromatography,” Cell Structure and Function 13(1988):281-292. Biotinylated human vitronectin was prepared by coupling NHS-biotin from Pierce Chemical Company (Rockford, IL) to purified vitronectin as previously described. (Charo, I. F., Nannizzi, L., Phillips, D. R., Hsu, M. A., Scarborough, R. M., “Inhibition of fibrinogen binding to GP IIb/IIIa by a GP IIIa peptide”, J. Biol. Chem. 266(3)(1991): 1415-1421.) Assay buffer, OPD substrate tablets, and RIA grade BSA were obtained from Sigma (St. Louis, Mo.). Anti-biotin antibody was obtained from Sigma (St. Louis, Mo.). Nalge Nunc-Immuno microtiter plates were obtained from (Rochester, N.Y.). ADP reagent was obtained from Sigma (St. Louis, Mo.).
This assay is essentially the same reported in Niiya, K., Hodson, E., Bader, R., Byers-Ward, V. Koziol, J. A., Plow, E. F. and Ruggeri, Z. M., “Increased surface expression of the membrane glycoprotein IIb/IIIa complex induced by platelet activation: Relationships to the binding of fibrinogen and platelet aggregation”, Blood 70(1987):475-483. The purified human fibrinogen receptor (IIb/IIIa) was diluted from stock solutions to 1.0 μg/mL in Tris-buffered saline containing 1.0 mM Ca^++, Mg^++, and Mn^++, pH 7.4 (TBS^+++). The diluted receptor was immediately transferred to Nalge Nunc-Immuno microtiter plates at 100 μL/well (100 ng receptor/well). The plates were sealed and incubated overnight at 4° C. to allow the receptors to bind to the wells. All remaining steps were at room temperature. The assay plates were emptied and 200 μL of 1% RIA grade BSA in TBS^+++ (TBS^+++/BSA) were added to block exposed plastic surfaces. Following a 2 hour incubation, the assay plates were washed with TBS^+++ using a 96 well plate washer. Logarithmic serial dilution of the test compound and controls were made starting at a stock concentration of […] and using 2 nM biotinylated vitronectin in TBS^+++/BSA as the diluent. This premixing of labeled ligand with test (or control) ligand, and subsequent transfer of 50 μL aliquots to the assay plate was carried out with a CETUS Propette robot; the final concentration of the labeled ligand was 1 nM and the highest concentration of test compound was 1.0×10^−4 M. The competition occurred for two hours after which all wells were washed with a plate washer as before. Affinity purified horseradish peroxidase labeled goat anti-biotin antibody was diluted 1:2000 in TBS^+++/BSA and 125 μL were added to each well. After 45 minutes, the plates were washed and incubated with […] substrate in 100 mM/L citrate buffer, pH 5.0. The plate was read with a microtiter plate reader at a wavelength of 450 nm and when the maximum-binding control wells reached an absorbance of about 1.0, the final A450 were recorded for analysis. The data were analyzed using a macro written for use with the EXCELJ spreadsheet program. The mean, standard deviation, and %CV were determined for duplicate concentrations. The mean A450 values were normalized to the mean of four maximum-binding controls (no competitor added)(B-MAX). The normalized values were subjected to a four parameter curve fit algorithm, [Robard et al., Int.

pIC50: −log10 of the molar value.

A word on the pIC50: it is −log10 of the IC50, conventionally taken in molar units.

T1 sequence (P06756 31-889 limits assumed): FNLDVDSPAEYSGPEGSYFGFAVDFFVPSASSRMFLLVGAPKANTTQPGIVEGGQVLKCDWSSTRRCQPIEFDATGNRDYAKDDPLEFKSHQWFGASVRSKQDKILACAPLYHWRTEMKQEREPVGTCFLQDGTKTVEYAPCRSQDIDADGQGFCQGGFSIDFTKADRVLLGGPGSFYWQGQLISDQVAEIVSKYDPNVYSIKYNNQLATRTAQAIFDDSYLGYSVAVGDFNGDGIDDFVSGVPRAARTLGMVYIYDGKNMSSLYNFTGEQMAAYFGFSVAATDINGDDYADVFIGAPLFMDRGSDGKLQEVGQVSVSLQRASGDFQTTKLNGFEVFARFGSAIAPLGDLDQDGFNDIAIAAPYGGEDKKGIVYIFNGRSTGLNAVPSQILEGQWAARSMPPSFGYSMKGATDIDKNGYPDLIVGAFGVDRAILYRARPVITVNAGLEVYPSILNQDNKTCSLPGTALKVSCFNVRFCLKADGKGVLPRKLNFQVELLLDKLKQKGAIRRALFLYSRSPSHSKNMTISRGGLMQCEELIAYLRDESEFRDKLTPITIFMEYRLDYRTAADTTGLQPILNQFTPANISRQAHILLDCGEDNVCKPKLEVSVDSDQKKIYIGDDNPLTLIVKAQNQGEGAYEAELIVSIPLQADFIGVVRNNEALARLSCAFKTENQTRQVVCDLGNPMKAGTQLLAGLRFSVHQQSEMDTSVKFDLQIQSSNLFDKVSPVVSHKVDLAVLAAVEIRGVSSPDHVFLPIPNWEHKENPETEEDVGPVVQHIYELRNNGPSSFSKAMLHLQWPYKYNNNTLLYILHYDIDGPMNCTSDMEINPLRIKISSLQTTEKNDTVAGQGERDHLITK
T1 sequence (P06756 891-1048 partner limits assumed): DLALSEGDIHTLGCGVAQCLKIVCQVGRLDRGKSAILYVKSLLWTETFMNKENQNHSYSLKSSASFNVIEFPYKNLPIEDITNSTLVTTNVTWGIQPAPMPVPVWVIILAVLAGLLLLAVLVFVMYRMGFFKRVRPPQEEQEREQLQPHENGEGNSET
T1 sequence (P18564 22-788): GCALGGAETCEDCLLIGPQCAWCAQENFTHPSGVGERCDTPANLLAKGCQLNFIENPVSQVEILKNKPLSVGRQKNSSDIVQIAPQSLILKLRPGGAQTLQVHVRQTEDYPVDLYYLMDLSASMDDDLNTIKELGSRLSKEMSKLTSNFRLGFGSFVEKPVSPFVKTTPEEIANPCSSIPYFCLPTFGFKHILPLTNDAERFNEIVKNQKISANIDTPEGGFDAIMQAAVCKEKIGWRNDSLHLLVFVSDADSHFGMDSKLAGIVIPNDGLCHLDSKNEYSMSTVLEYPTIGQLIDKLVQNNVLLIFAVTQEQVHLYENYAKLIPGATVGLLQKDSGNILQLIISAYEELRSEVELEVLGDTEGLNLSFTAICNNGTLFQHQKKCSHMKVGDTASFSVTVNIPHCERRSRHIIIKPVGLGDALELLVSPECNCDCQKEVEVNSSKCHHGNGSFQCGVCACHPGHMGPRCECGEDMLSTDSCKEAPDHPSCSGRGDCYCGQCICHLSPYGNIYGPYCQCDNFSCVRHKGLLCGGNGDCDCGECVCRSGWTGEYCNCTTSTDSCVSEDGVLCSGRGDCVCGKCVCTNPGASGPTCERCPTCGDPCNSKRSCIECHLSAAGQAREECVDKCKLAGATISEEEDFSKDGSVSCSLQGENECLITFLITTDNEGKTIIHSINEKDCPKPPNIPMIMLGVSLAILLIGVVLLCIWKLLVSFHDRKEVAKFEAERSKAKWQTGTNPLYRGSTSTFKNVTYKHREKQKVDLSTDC
T2 sequence (P06756 31-889 limits assumed): as the sequence (P06756 31-889 limits assumed) above
T2 sequence (P06756 891-1048 partner limits assumed): as the sequence (P06756 891-1048 partner limits assumed) above
T2 sequence (P05106 27-788): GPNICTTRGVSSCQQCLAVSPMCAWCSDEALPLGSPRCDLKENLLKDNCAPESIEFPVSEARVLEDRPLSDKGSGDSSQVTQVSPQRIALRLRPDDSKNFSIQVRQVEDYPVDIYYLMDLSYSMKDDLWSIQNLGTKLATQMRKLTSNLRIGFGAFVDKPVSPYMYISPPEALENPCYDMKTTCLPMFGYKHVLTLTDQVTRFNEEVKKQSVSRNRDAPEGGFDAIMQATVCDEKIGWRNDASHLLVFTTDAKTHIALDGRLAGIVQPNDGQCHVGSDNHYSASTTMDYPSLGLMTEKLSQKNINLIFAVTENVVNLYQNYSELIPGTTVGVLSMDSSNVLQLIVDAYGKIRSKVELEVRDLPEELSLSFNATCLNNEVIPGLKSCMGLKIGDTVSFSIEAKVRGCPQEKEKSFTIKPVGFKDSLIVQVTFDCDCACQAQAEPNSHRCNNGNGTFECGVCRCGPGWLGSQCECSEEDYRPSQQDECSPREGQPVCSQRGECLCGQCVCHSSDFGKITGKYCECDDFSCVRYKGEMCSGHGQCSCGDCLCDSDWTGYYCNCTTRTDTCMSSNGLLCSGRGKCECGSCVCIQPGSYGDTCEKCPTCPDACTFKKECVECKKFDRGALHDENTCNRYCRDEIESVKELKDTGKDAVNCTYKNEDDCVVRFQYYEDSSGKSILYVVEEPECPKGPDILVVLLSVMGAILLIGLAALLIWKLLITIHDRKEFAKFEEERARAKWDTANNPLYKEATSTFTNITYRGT
T3 sequence (P08514 32-887 limits assumed): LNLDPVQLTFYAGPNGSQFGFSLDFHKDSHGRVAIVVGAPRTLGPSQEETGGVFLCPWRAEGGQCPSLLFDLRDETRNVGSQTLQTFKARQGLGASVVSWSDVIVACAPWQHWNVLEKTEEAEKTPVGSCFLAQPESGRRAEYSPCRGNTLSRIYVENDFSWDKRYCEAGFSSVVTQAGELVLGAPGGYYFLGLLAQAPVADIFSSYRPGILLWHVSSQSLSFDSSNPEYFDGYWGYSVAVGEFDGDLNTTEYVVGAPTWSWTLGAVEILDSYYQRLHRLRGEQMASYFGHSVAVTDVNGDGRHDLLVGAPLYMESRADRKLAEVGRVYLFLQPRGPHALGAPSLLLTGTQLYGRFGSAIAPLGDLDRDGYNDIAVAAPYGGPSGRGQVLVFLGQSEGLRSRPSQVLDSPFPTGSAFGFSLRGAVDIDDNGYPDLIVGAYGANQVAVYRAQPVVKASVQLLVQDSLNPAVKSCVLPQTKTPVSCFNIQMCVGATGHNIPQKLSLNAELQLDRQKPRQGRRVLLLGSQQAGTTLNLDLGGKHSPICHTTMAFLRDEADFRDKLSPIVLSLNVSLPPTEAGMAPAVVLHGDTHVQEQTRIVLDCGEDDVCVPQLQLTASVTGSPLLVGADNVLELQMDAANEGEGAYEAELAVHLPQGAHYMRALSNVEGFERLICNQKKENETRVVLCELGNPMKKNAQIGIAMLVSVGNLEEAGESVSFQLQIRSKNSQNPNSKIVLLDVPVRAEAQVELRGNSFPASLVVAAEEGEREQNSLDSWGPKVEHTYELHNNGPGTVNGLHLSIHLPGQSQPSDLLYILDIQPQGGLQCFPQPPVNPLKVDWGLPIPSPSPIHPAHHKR
T3 sequence (P08514 891-1039 partner limits assumed): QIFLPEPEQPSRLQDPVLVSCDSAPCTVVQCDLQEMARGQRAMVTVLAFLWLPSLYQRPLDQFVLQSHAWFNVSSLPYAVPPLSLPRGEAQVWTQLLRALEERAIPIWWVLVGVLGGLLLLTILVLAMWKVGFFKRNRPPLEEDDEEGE
T3 sequence (P05106 27-788): as the sequence (P05106 27-788) above

With `O=C(O)C(F)(F)F.O=C(O)CC1(Cc2nc(CCCCNc3ccccn3)no2)CCCC1` [Example 4, [1-({3-[4-(pyridin-2-ylamino)butyl]-1,2,4-oxadiazol-5-yl}methyl)cyclopentyl]-acetic acid], in assay [1], the “HT-29 β-6 Selectivity* (β6/β3)” value is recorded as “+++ (Selectivity Ratio >100 +++)”. The pIC50 in assay [2] is > 5.00. In assay [3], the “SPRA AIIbB3 Selectivity* IIbIIIa/β3” value is on record as “++ (Selectivity Ratio of 10-100 ++)”.
As for `CC(C)(CC(=O)O)Cc1nc(CCCc2ccc3c(n2)NCCC3)no1.O=C(O)C(F)(F)F` [Example 12, 3,3-dimethyl-4-{3-[3-(5,6,7,8-tetrahydro-1,8-naphthyridin-2-yl)propyl]-1,2,4-oxadiazol-5-yl}butanoic acid], in assay [1], the “HT-29 β-6 Selectivity* (β6/β3)” value is reported as “+++ (Selectivity Ratio >100 +++)”. The pIC50 in assay [2] was > 5.00. Besides, in assay [3], the “SPRA AIIbB3 Selectivity* IIbIIIa/β3” value was “+++ (Selectivity Ratio >100 +++)”.
Turning to `O=C(O)C(F)(F)F.O=C(O)CC(Cc1nc(CCCc2ccc3c(n2)NCCC3)no1)c1ccc2c(c1)OCO2` (stereo not drawn) [Example 16, 3-(1,3-benzodioxol-5-yl)-4-{3-[3-(5,6,7,8-tetrahydro-1,8-naphthyridin-2-yl)propyl]-1,2,4-oxadiazol-5-yl}butanoic acid], in assay [1], the “HT-29 β-6 Selectivity* (β6/β3)” value is listed as “+++ (Selectivity Ratio >100 +++)”. The negative-log IC50 (pIC50) in assay [2] was > 5.00. The “SPRA AIIbB3 Selectivity* IIbIIIa/β3” value in assay [3] is “+++ (Selectivity Ratio >100 +++)”.
As for `O=C(O)CC(Cc1nc(CCCCNc2ccccn2)no1)c1ccc2c(c1)OCO2` (stereo not drawn) [Example 17, 3-(1,3-benzodioxol-5-yl)-4-{3-[4-(pyridin-2-ylamino)butyl]-1,2,4-oxadiazol-5-yl}butanoic acid], the “HT-29 β-6 Selectivity* (β6/β3)” value in assay [1] is given as “+++ (Selectivity Ratio >100 +++)”. Besides, in assay [2], the pIC50 is > 5.00. Also, in assay [3], the “SPRA AIIbB3 Selectivity* IIbIIIa/β3” value was “++ (Selectivity Ratio of 10-100 ++)”.
As for `O=C(O)C(F)(F)F.O=C(O)CC(Cc1nc(CCCc2ccc3c(n2)NCCC3)no1)c1cnc2ccccc2c1` (stereo not drawn) [Example 18, 3-quinolin-3-yl-4-{3-[3-(5,6,7,8-tetrahydro-1,8-naphthyridin-2-yl)propyl]-1,2,4-oxadiazol-5-yl}butanoic acid], in assay [1], the “HT-29 β-6 Selectivity* (β6/β3)” value is given as “+++ (Selectivity Ratio >100 +++)”. Moreover, the pIC50 in assay [2] is > 5.00. In addition, the “SPRA AIIbB3 Selectivity* IIbIIIa/β3” value in assay [3] is on record as “+++ (Selectivity Ratio >100 +++)”.
Turning to `O=C(O)C(F)(F)F.O=C(O)CC(Cc1nc(CCCCNc2ccccn2)no1)c1cnc2ccccc2c1` (stereo not drawn) [Example 19, 3-quinolin-3-yl-4-{3-[4-(pyridin-2-ylamino)butyl]-1,2,4-oxadiazol-5-yl}-butanoic acid], the “HT-29 β-6 Selectivity* (β6/β3)” value in assay [1] is “+++ (Selectivity Ratio >100 +++)”. For the same compound, the negative-log IC50 (pIC50) in assay [2] was > 5.00. In addition, in assay [3], the “SPRA AIIbB3 Selectivity* IIbIIIa/β3” value is “++ (Selectivity Ratio of 10-100 ++)”.
Turning to `COc1cccc(C(CC(=O)O)Cc2nc(CCCc3ccc4c(n3)NCCC4)no2)c1.O=C(O)C(F)(F)F` (stereo not drawn) [Example 20, 3-(3-methoxyphenyl)-4-{3-[3-(5,6,7,8-tetrahydro-1,8-naphthyridin-2-yl)propyl]-1,2,4-oxadiazol-5-yl}butanoic acid], the “HT-29 β-6 Selectivity* (β6/β3)” value in assay [1] was “+++ (Selectivity Ratio >100 +++)”. Also, the pIC50 in assay [2] was > 5.00. For the same compound, in assay [3], the “SPRA AIIbB3 Selectivity* IIbIIIa/β3” value was “+++ (Selectivity Ratio >100 +++)”.
Turning to `COc1cccc(C(CC(=O)O)Cc2nc(CCCCNc3ccccn3)no2)c1.O=C(O)C(F)(F)F` (stereo not drawn) [Example 21, 3-(3-methoxyphenyl)-4-{3-[4-(pyridin-2-ylamino)butyl]-1,2,4-oxadiazol-5-yl}butanoic acid], in assay [1], the “HT-29 β-6 Selectivity* (β6/β3)” value was “+++ (Selectivity Ratio >100 +++)”. The pIC50 in assay [2] is > 5.00. Further, in assay [3], the “SPRA AIIbB3 Selectivity* IIbIIIa/β3” value is recorded as “++ (Selectivity Ratio of 10-100 ++)”.
`COc1ccc(C(CC(=O)O)Cc2nc(CCCc3ccc4c(n3)NCCC4)no2)cc1.O=C(O)C(F)(F)F` (stereo not drawn) [Example 22, 3-(4-methoxyphenyl)-4-{3-[3-(5,6,7,8-tetrahydro-1,8-naphthyridin-2-yl)propyl]-1,2,4-oxadiazol-5-yl}butanoic acid]: in assay [1], the “HT-29 β-6 Selectivity* (β6/β3)” value was “+++ (Selectivity Ratio >100 +++)”. In addition, the negative-log IC50 (pIC50) in assay [2] was > 5.00. For the same compound, the “SPRA AIIbB3 Selectivity* IIbIIIa/β3” value in assay [3] is given as “+++ (Selectivity Ratio >100 +++)”.
